# Measured values taken from paper PMC12560828, “Chemical structure drives developmental toxicity of alkyl-substituted naphthalenes in zebrafish” (Environment international, 2025).
# Values joined by “and” are separate entries in the source; they are usually repeats but may differ in a detail not shown here. Equal entries are not always repeated. Where two headings read alike, the source gives them in different places.
# Key:
# [1] = system: zebrafish larvae, 120 hpf; assay: Larval photomotor response (LPR) assay after vial exposure; type: in vivo, Danio rerio; conditions: LPR
# Description: (§1) When embryos were 6 hpf they were bleached in groups of 1000 or less to limit bacterial growth in sealed vials. Embryos were placed in a strainer for transfer between solutions in 500 mL containers. […] Pools of eight embryos were placed into 2 mL clear glass screw cap exposure vials with polyvinyl-faced pulp liner (Avantar Radnor, PA, United States) using a glass Pasteur pipette. Excess EM was removed, and 2 mL of fresh EM was immediately added. A total of 10 uL of 200x working stock (in DMSO) was added to each vial, then immediately capped and inverted three times to mix. […] Vials were loaded into a custom 3D printed vial holder for slow end-over-end rotation in a dark 28 °C incubator overnight. […] At 24 hpf, embryos were removed from exposure vials and singulated into 96-well plates loaded with 100 μL chemical-free EM. Each exposure vial group was maintained in plate columns. After loading into 96-well plates, embryos were assessed for 24-hour mortality. For the remainder of the exposure, plates were kept stationary at 28 °C in the dark, until 120 hpf when morphology screening and the larval photo motor response (LPR) assay were conducted, section 2.3.2 and section 2.3.3, respectively.
# Each treatment group was replicated over four vials, resulting in 32 embryos per treatment, split over two replicate 96-well plates per chemical. […] Vial groups of plated larvae were tracked to assess the impact of the vial on the results. All reported concentrations were nominal water concentrations and are included in SI-T4.
# The LPR assay was conducted at 120 hpf. […] Larval movement was tracked throughout minutes 6–24. Animals dead or morphologically abnormal were excluded from the analysis, and if more than 30 % of the wells in a treatment group were excluded, the treatment was removed.
# Movement values were binned into 6s intervals, log normalized and used to calculate area under the curve (AUC). AUC values from the first cycle after calibration were used to calculate the LEL for each period (light and dark).
# [2] = system: early life stage zebrafish (Danio rerio) embryos; assay: Developmental toxicity morphology screen, sealed rotating vial exposure; type: in vivo; set-up: bmd, MO24 / bmd, MORT / bmd, ANY_ / bmd, AXIS / bmd, CRAN / bmd, EDEM / bmd, LTRK / bmd, MUSC / bmdL, ANY_ / bmdU, ANY_ / bmdL, AXIS / bmdU, AXIS / bmdL, CRAN / bmdU, CRAN / bmdL, EDEM / bmdU, EDEM / bmdL, LTRK / bmdU, LTRK / bmdL, MO24 / bmdU, MO24 / bmdL, MORT / bmdU, MORT: unit not given here; conditions: for morphological effects (BMC50 for any morphological endpoint): 0-50 μM, result in words
# Description: as §1
# Each treatment group was replicated over four vials, resulting in 32 embryos per treatment, split over two replicate 96-well plates per chemical. […] All reported concentrations were nominal water concentrations and are included in SI-T4.
# At 24 hpf embryos were assessed for mortality (MO24). At 120 hpf embryos were assessed for abnormality in […] morphological endpoints: mortality (MORT), edemas (EDEM), bent axis (AXIS), touch response (TCHR), craniofacial (CRAN), muscular/cardiovascular (MUSC), lower trunk (LRTK), brain (BRAN), skin (SKIN), and notochord malformations (NC). Morphological assessments were made by a team of three to four individuals. The team was blinded to the identity, plate layout, and concentrations of the chemicals, thereby minimizing bias in morphological screening assessment. To ensure the assessments were consistent, concentration–response reproducibility of a parathion ethyl quality control plate was performed along with each experimental exposure set up. Details of all measured endpoints can be found at Developmental toxicity zebrafish phenotype atlas. […] Each endpoint was scored as a binary presence/absence and scores were compiled into an “Any effect” endpoint, the presence of abnormality in any individual endpoint.
# The Any effect percent was used to calculate the BMC50, 50 % change relative to the background for each endpoint and chemical. All values were reported as the nominal exposure concentration.
# [3] = system: lung tissue; conditions: compared to naphthalene and monomethylated derivatives, ref Honda et al., 1990, cited from earlier work
# [4] = Body burden measurement (GC-MS/MS) and concentration uptake ratio, vial exposure; type: in vivo, Danio rerio; conditions: zebrafish (Danio rerio), whole embryos (32 pooled, ethyl acetate extract), other: waterborne exposure of embryos in sealed vials, 20 μM exposure, 32 pooled embryos, 0.5 mL extract, single replicates, read-out: measured concentration in embryo extract
# Description: (§2) Body burden was measured for exposure to five chemicals at two timepoints: 24 and 48 hpf. […] The exposure concentration was chosen as it was the maximum possible concentration that ensured enough viable animals for collection at 48 hpf and allowed direct comparison of chemical uptake at the same exposure concentration.
# (§3) Chemicals were exposed at 20 μM following the exposure procedure detailed in section 1.3, 24 vials per chemical. At 24 hpf, embryos were pooled in groups of 32 embryos (combining embryos from 4 vials) into 1.5 mL polypropylene RINO-safe lock tubes (n = 3 per chemical treatment, n = 3 per control). Tubes were briefly placed on ice to reduce embryo movement (<1 min); the remaining medium was removed; the tube was then flash frozen in liquid nitrogen and stored at −20 °C until extraction. Embryos in the remaining vials were plated as previously described in section 1.3 until collection at 48 hpf following the same procedure as 24 hpf collections (n = 3 per chemical treatment, n = 1 control).
# (§4) Tissue extraction was performed as previously reported ([Rude et al., 2025]). Each sample was spiked with 25 μL internal standard in ethyl acetate and 100 μL of 1 mm glass beads (Next Advance, Troy, NY United States) were added to the RINO-safe lock tubes containing thawed tissue samples and left on ice for 10 min 250 mg of Na2SO4 and 200 μL of ethyl acetate were added to each tube and vortexed. Tubes were homogenized at speed 8 for 6 min in a Bullet Blender (Next Advance, Troy, NY, United States). 300 μL of ethyl acetate was added to each tube and the homogenization step was repeated until no pieces of non-homogenized fish tissue remained. Samples were then centrifuged for 10 min at 4 °C, 1600g. Sample supernatant (0.5 mL) was collected into amber vials and stored at 4 °C until chemical analysis.
# (§5) Samples were analyzed for quantitation and identification of 161 PAHs. The method was performed with an Agilent 7890 gas chromatograph (GC), with a 7000C triple quadrupole mass spectrometer (MS/MS) using an Agilent J&W PAH select (30 m × 250 μm × 0.15 μm GC column). Calibration for each analyte utilized at least a 4-point (range: 4–7, median 6 points, n = 161) curve with R^2 ≥ 0.99. Specific instrument conditions were modified from [Anderson et al. (2015)] and are detailed in Table S3. GC–MS/MS data was analyzed using MassHunter Quantitative Analysis v.B.06.00 SP1 build 6.0.388.1 software (Agilent Corp. Wilmington,DE) ([Anderson et al., 2015]). Dynamic muti-reaction monitoring mode was used during analyses, and all PAHs were identified using analytical standards obtained from multiple sources (Table S1). Collison energies were optimized for each individual unsubstituted PAH, alkylation series (C1, C2, etc.), and when possible, specific alkylation group (i.e. methyl, ethyl, etc.).
# (§6) Body burden concentrations based on average embryo wet weight at each timepoint were determined by the equation below. Total measured chemical was calculated from ng/mL concentrations times sample volume (0.5 mL). Bodyburdennmol/mgbw=total measured chemicalnmol/number of fish32×average body weightmg
# (§7) Average body weights at 24 hpf and 48 hpf were assumed to be 0.31 mg and 0.26 mg, respectively as determined previously ([Rericha et al., 2024]). Statistical analysis to compare time points within chemicals was performed using a two-sided Student’s t-test (p-value ≤ 0.05). An ANOVA with a follow-up Dunn’s test was used to compare body burden between chemicals at 24 hpf (p-value ≤ 0.05). Body burden concentrations at 24 hpf were compared to the estimated percent effect of each measured chemical at the exposure concentration used for body burden analysis (20 μM). These estimates were made using the fitted concentration-response curves previously described in section 2.3.2.2.
# (§8) Concentration uptake ratios between vial exposures and 96-well plate exposures were compared using a two-sided Student’s t-test, p-values ≤ 0.05 were considered significant. […]
# [5] = system: zebrafish embryos; assay: as above; type: in vivo, Danio rerio; conditions: for measured concentration in embryo extract: 20 μM exposure, 32 pooled embryos, 0.5 mL extract, single replicates; for nmol/embryo per nmol available / nmol/embryo: Current study, vial, 20 μM; for nmol/embryo: single chemical
# Description: as §2, §3, §4, §5, §6, §7, §8
# [6] = system: zebrafish embryos; conditions: 96-well, cited from earlier work
# [7] = period dark, round 1, conc 3.125
# [8] = period dark, round 1, conc 6.25
# [9] = period dark, round 1, conc 12.5
# [10] = period light, round 1, conc 3.125
# [11] = period light, round 1, conc 6.25
# [12] = period light, round 1, conc 12.5
# [13] = 24 hpf, 2.6 μM, mixture, ref Rude et al 2025
# [14] = 48 hpf, 2.6 μM, mixture, ref Rude et al 2025
smiles,measurement,setting,value
"CC(C)c1ccc2cc(C(C)C)ccc2c1 [2,6-diisopropylnaphthalene]",fold_change,[1]; [7],-0.1214
same,fold_change,[1]; [8],0.07359
same,fold_change,[1]; [9],-0.001373
same,fold_change,"[1]; period dark, round 1, conc 25",-0.09025
same,fold_change,"[1]; period dark, round 1, conc 50",-0.07941
same,fold_change,[1]; [10],-0.5097
same,fold_change,[1]; [11],-1.08
same,fold_change,[1]; [12],-0.05494
same,fold_change,"[1]; period light, round 1, conc 25",-0.2588
same,fold_change,"[1]; period light, round 1, conc 50",-0.8125
same,morphological effects (BMC50 for any morphological endpoint),[2],lack of activity
same,toxicity / lung tissue damage in mice,[3],minimal damage to lung tissue
same,toxicity / lung tissue damage in mice,"[3]; listed as 2,6-diidopropylnaphthalene",minimally active
c1ccc2ccccc2c1 [naphthalene],"concentration at 24 hpf, 20 μM",[4]; 24 hpf,6500 ng/mL
same,"concentration at 48 hpf, 20 μM",[4]; 48 hpf,75.6 ng/mL
same,measured concentration in embryo extract,[5]; 24 hpf,4400 ng/mL and 5130 ng/mL
same,measured concentration in embryo extract,[5]; 48 hpf,66.9 ng/mL and 62 ng/mL
same,nmol/embryo per nmol available,[5]; 24 hpf,0.1585 and 0.1073 and 0.1251
same,nmol/embryo,[5]; 24 hpf,0.7924 nmol/embryo and 0.5364 nmol/embryo and 0.6254 nmol/embryo
same,nmol/embryo per nmol available,[5]; 48 hpf,0.001843 and 0.001631 and 0.001512
same,nmol/embryo,[5]; 48 hpf,0.009216 nmol/embryo and 0.008156 nmol/embryo and 0.007558 nmol/embryo
same,mean nmol/embryo per nmol available,[6]; [13],0.004595
same,nmol/embryo,[6]; [13],0.001159 nmol/embryo and 0.001224 nmol/embryo and 0.001235 nmol/embryo
same,nmol/embryo per nmol available,[6]; [13],0.00446 and 0.00471 and 0.004751
same,nmol/embryo,[6]; [14],0.0007856 nmol/embryo and 0.00092 nmol/embryo and 0.0008366 nmol/embryo and 0.0008192 nmol/embryo
same,nmol/embryo per nmol available,[6]; [14],0.003022 and 0.003538 and 0.003218 and 0.003151
same,nmol/embryo,"[6]; 48 hpf, 5.39 μM, single chemical, ref Geier et al 2018",0.0007734 nmol/embryo and 0.0007422 nmol/embryo and 0.000789 nmol/embryo
same,nmol/embryo per nmol available,"[6]; 48 hpf, 5.39 μM, ref Geier et al 2018",0.001435 and 0.001377 and 0.001464
same,nmol/embryo,"[6]; 48 hpf, 11.6 μM, single chemical, ref Geier et al 2018",0.001794 nmol/embryo and 0.001746 nmol/embryo and 0.001648 nmol/embryo
same,nmol/embryo per nmol available,"[6]; 48 hpf, 11.6 μM, ref Geier et al 2018",0.001547 and 0.001505 and 0.001421
same,nmol/embryo,"[6]; 48 hpf, 25 μM, single chemical, ref Geier et al 2018",0.002233 nmol/embryo and 0.002584 nmol/embryo and 0.002516 nmol/embryo
same,nmol/embryo per nmol available,"[6]; 48 hpf, 25 μM, ref Geier et al 2018",0.0008933 and 0.001034 and 0.001006
same,morphological effects (BMC50 for any morphological endpoint),[2],no morphological BMC50 values
CC(C)c1ccc2ccccc2c1 [2-isopropylnaphthalene],fold_change,[1]; [7],-0.04413
same,fold_change,[1]; [8],-0.6849
same,fold_change,[1]; [9],-1.554
same,fold_change,"[1]; period dark, round 2, conc 12.8",-0.9379
same,fold_change,"[1]; period dark, round 2, conc 16",-1.368
same,fold_change,"[1]; period dark, round 2, conc 20",-1.899
same,fold_change,[1]; [10],0.2872
same,fold_change,[1]; [11],0.3099
same,fold_change,[1]; [12],1.277
same,fold_change,"[1]; period light, round 2, conc 12.8",-0.1327
same,fold_change,"[1]; period light, round 2, conc 16",-0.2493
same,fold_change,"[1]; period light, round 2, conc 20",0.1913
same,BMC50 MO24 (mortality at 24 hpf),"[2]; Fig. 2, nominal concentration",29.9 µM
same,BMC50 MORT (mortality at 120 hpf),"[2]; Fig. 2, nominal concentration",25.2 µM
same,BMC50 Any effect,"[2]; Fig. 2 heatmap, nominal concentration, exposure 6-24 hpf in vials, summary of all endpoints",19.8 µM
same,any effect BMD50,[2]; SI-T5,19.85 µM
same,"bmd, MO24","[2]; endpoint MO24, benchmark dose",29.9264
same,"bmdL, MO24","[2]; endpoint MO24, lower limit of benchmark dose",27.6751
same,"bmdU, MO24","[2]; endpoint MO24, upper limit of benchmark dose",32.9501
same,"bmd, MORT","[2]; endpoint MORT, benchmark dose",25.1507
same,"bmdL, MORT","[2]; endpoint MORT, lower limit of benchmark dose",24.3232
same,"bmdU, MORT","[2]; endpoint MORT, upper limit of benchmark dose",26.3204
same,"bmd, ANY_","[2]; morphology endpoint ANY_, benchmark dose",19.8483
same,"bmdL, ANY_","[2]; morphology endpoint ANY_, lower limit of benchmark dose",18.4734
same,"bmdU, ANY_","[2]; morphology endpoint ANY_, upper limit of benchmark dose",21.3892
same,toxicity / lung tissue damage in mice,[3],minimally active
